Assay results reported in patent publication US9096589B2, “Heteroaromatic phenylimidazole derivatives as PDE10A enzyme inhibitors” (H. Lundbeck A/S, priority 2009, dated 2015).
pIC50: −log10 of the molar value.

Biological target: PDE10A (Homo sapiens (Human), UniProt Q9Y233)
Assay: PDE10A inhibition assay
Format: biochemical
Procedure: Active PDE10A enzyme is prepared in a number of ways for use in PDE assays (Loughney, K. et al. Gene 1999, 234, 109-117; Fujishige, K. et al. Eur J. Biochem. 1999, 266, 1118-1127 and Soderling, S. et al. Proc. Natl. Acad. Sci. 1999, 96, 7071-7076). PDE10A can be expressed as full-length proteins or as truncated proteins, as long as they express the catalytic domain. PDE10A can be prepared in different cell types, for example insect cells or E. coli. An example of a method to obtain catalytically active PDE10A is as follows: The catalytic domain of human PDE10A (amino acids 440-779 from the sequence with accession number NP 006652) is amplified from total human brain total RNA by standard RT-PCR and is cloned into the BamH1 and Xho1 sites of the pET28a vector (Novagen). Expression in coli is performed according to standard protocols. Briefly, the expression plasmids are transformed into the BL21(DE3) E. coli strain, and 50 mL cultures inoculated with the cells allowed to grow to an OD600 of 0.4-0.6 before protein expression is induced with 0.5 mM IPTG. Following induction, the cells are incubated overnight at room temperature, after which the cells are collected by centrifugation. Cells expressing PDE10A are resuspended in 12 mL (50 mM TRIS-HCl-pH8.0, 1 mM MgCl2 and protease inhibitors). The cells are lysed by sonication, and after all cells are lysed, TritonX100 is added according to Novagen protocols.
A PDE10A assay may for example, be performed as follows: The assay is performed in 60 uL samples containing a fixed amount of the relevant PDE enzyme (sufficient to convert 20-25% of the cyclic nucleotide substrate); a buffer (50 mM HEPES7.6; 10 mM MgCl2; 0.02% Tween20), 0.1 mg/ml BSA, 225 pCi of ^3H-labelled cyclic nucleotide substrate, tritium labeled cAMP to a final concentration of 5 nM and varying amounts of inhibitors. Reactions are initiated by addition of the cyclic nucleotide substrate, and reactions are allowed to proceed for one hr at room temperature before being terminated through mixing with 15 uL 8 mg/mL yttrium silicate SPA beads (Amersham). The beads are allowed to settle for one hr in the dark before the plates are counted in a Wallac 1450 Microbeta counter. The measured signal can be converted to activity relative to an uninhibited control (100%) and IC50 values can be calculated using the Xlfit extension to EXCEL.

Sequence of PDE10A (Q9Y233 716-1055): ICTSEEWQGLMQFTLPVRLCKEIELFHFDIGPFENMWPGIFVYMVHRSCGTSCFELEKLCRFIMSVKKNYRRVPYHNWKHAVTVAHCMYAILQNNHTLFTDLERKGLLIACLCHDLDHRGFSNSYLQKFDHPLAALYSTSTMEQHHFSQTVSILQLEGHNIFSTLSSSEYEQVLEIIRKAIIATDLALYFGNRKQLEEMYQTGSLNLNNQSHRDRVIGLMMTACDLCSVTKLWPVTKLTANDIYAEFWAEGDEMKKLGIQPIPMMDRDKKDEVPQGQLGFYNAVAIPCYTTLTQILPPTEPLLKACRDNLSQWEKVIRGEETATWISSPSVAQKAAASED

Row | SMILES | pIC50
1 | COc1ccc(C)n2nc(CCc3nc(-c4cscc4C)cn3C)nc12 [8-Methoxy-5-methyl-2-{2-[1-methyl-4-(4-methyl-thiophen-3-yl)-1H-imidazol-2-yl]-ethyl}-[1,2,4]triazolo[1,5-a]pyridine] | 8.51
2 | Cc1cc(C)n2cc(/C=C/c3nc(-c4cncs4)cn3C)nc2n1 [5,7-Dimethyl-2-[(E)-2-(1-methyl-4-thiazol-5-yl-1H-imidazol-2-yl)-vinyl]-imidazo[1,2-a]pyrimidine] | 7.01
3 | Cc1cc(C)n2nc(CCc3nc(-c4cccnc4)cn3C)nc2n1 [5,7-Dimethyl-2-[2-(1-methyl-4-pyridin-3-yl-1H-imidazol-2-yl)-ethyl]-[1,2,4]triazolo[1,5-a]pyrimidine] | 7.36
4 | COc1ccc(C)n2nc(CCc3nc(-c4cccs4)cn3CCCC#N)nc12 [4-{2-[2-(8-Methoxy-5-methyl-[1,2,4]triazolo[1,5-a]pyridin-2-yl)-ethyl]-4-thiophen-2-yl-imidazol-1-yl}-butyronitrile] | 8.77
5 | CCCn1cc(-c2cccs2)nc1CCc1cn2c(C)cc(C)nc2n1 [5,7-Dimethyl-2-[2-(1-propyl-4-thiophen-2-yl-1H-imidazol-2-yl)-ethyl]-imidazo[1,2-a]pyrimidine] | 8.47
6 | C#CCn1cc(-c2cccs2)nc1CCc1nc2c(OC)ccc(C)n2n1 [8-Methoxy-5-methyl-2-[2-(1-prop-2-ynyl-4-thiophen-2-yl-1H-imidazol-2-yl)-ethyl]-[1,2,4]triazolo[1,5-a]pyridine] | 8.39
7 | Cc1cc(C)n2cc(CCc3nc(-c4ccsc4)cn3C)nc2n1 [5,7-Dimethyl-2-[2-(1-methyl-4-thiophen-3-yl-1H-imidazol-2-yl)-ethyl]-imidazo[1,2-a]pyrimidine] | 7.48
8 | COc1ccc(C)n2nc(CCc3nc(-c4cccs4)c[nH]3)nc12 [8-Methoxy-5-methyl-2-[2-(4-thiophen-2-yl-1H-imidazol-2-yl)-ethyl]-[1,2,4]triazolo[1,5-a]pyridine] | 8.96
9 | Cc1cc(C)n2nc(CCc3nc(-c4cccs4)cn3C)nc2n1 [5,7-Dimethyl-2-[2-(1-methyl-4-thiophen-2-yl-1H-imidazol-2-yl)-ethyl]-[1,2,4]triazolo[1,5-a]pyrimidine] | 8.38
10 | COc1ccc(C)n2nc(CCc3nc(-c4cccs4)cn3CCN3CCOCC3)nc12 [8-Methoxy-5-methyl-2-{2-[1-(2-morpholin-4-yl-ethyl)-4-thiophen-2-yl-1H-imidazol-2-yl]-ethyl}-[1,2,4]triazolo[1,5-a]pyridine] | 9.48
11 | COCCn1cc(-c2cncs2)nc1CCc1cn2c(C)cc(C)nc2n1 [2-{2-[1-(2-Methoxy-ethyl)-4-thiazol-5-yl-1H-imidazol-2-yl]-ethyl}-5,7-dimethyl-imidazo[1,2-a]pyrimidine] | 6.68
12 | COCC(O)Cn1cc(-c2cncs2)nc1CCc1cn2c(C)cc(C)nc2n1 (stereo not shown) [1-{2-[2-(5,7-Dimethyl-imidazo[1,2-a]pyrimidin-2-yl)-ethyl]-4-thiazol-5-yl-imidazol-1-yl}-3-methoxy-propan-2-ol] | 7.24
13 | COCC(O)Cn1cc(-c2cccs2)nc1CCc1nc2cccc(C)n2n1 (stereo not shown) [1-Methoxy-3-{2-[2-(5-methyl-[1,2,4]triazolo[1,5-a]pyridin-2-yl)-ethyl]-4-thiophen-2-yl-imidazol-1-yl}-propan-2-ol] | 8.12
14 | Cc1ccc(C)n2nc(CCc3nc(-c4cccs4)cn3C)nc12 [5,8-Dimethyl-2-[2-(1-methyl-4-thiophen-2-yl-1H-imidazol-2-yl)-ethyl]-[1,2,4]triazolo[1,5-a]pyridine] | 9.00
15 | Cc1ccc(-c2c[nH]c(CCc3nc4cccc(C)n4n3)n2)o1 [5-Methyl-2-{2-[4-(5-methyl-furan-2-yl)-1H-imidazol-2-yl]-ethyl}-[1,2,4]triazolo[1,5-a]pyridine] | 7.47
16 | Cc1cc(C)n2cc(CCc3nc(-c4cccs4)cn3C)nc2n1 [5,7-Dimethyl-2-[2-(1-methyl-4-thiophen-2-yl-1H-imidazol-2-yl)-ethyl]-imidazo[1,2-a]pyrimidine] | 7.35
17 | COc1cccn2nc(CCc3nc(-c4cccs4)cn3C)nc12 [8-Methoxy-2-[2-(1-methyl-4-thiophen-2-yl-1H-imidazol-2-yl)-ethyl]-[1,2,4]triazolo[1,5-a]pyridine] | 8.35

Row | SMILES | pIC50
18 | Cc1cscc1-c1c[nH]c(CCc2nc3cccc(C)n3n2)n1 [5-Methyl-2-{2-[4-(4-methyl-thiophen-3-yl)-1H-imidazol-2-yl]-ethyl}-[1,2,4]triazolo[1,5-a]pyridine] | 7.35
19 | COc1cccn2nc(CCc3nc(-c4cccs4)c[nH]3)nc12 [8-Methoxy-2-[2-(4-thiophen-2-yl-1H-imidazol-2-yl)-ethyl]-[1,2,4]triazolo[1,5-a]pyridine] | 7.55
20 | Cc1cc(C)n2cc(CCc3nc(-c4cncs4)cn3CC(O)c3ccc(Cl)cc3)nc2n1 (stereo not shown) [1-(4-Chloro-phenyl)-2-{2-[2-(5,7-dimethyl-imidazo[1,2-a]pyrimidin-2-yl)-ethyl]-4-thiazol-5-yl-imidazol-1-yl}-ethanol] | 8.24
21 | Cc1ncc(C)n2nc(CCc3nc(-c4nccs4)cn3C)nc12 [5,8-Dimethyl-2-[2-(1-methyl-4-thiazol-2-yl-1H-imidazol-2-yl)-ethyl]-[1,2,4]triazolo[1,5-a]pyrazine] | 8.57
22 | Cc1cccc2nc(CCc3nc(-c4cccs4)cn3C[C@@H](O)CN(C)CC#N)nn12 [[((S)-2-Hydroxy-3-{2-[2-(5-methyl-[1,2,4]triazolo[1,5-a]pyridin-2-yl)-ethyl]-4-thiophen-2-yl-imidazol-1-yl}-propyl)-methyl-amino]-acetonitrile] | 8.06
23 | Cc1ncc(C)n2nc(CCc3nc(-c4ccncc4)cn3C)nc12 [5,8-Dimethyl-2-[2-(1-methyl-4-pyridin-4-yl-1H-imidazol-2-yl)-ethyl]-[1,2,4]triazolo[1,5-a]pyrazine] | 9.26
24 | Cc1ncc(C)n2nc(CCc3nc(-c4cncnc4)cn3C)nc12 [5,8-Dimethyl-2-[2-(1-methyl-4-pyrimidin-5-yl-1H-imidazol-2-yl)-ethyl]-[1,2,4]triazolo[1,5-a]pyrazine] | 9.36
25 | Cc1cccn2nc(CCc3nc(-c4cccs4)cn3C)nc12 [8-Methyl-2-[2-(1-methyl-4-thiophen-2-yl-1H-imidazol-2-yl)-ethyl]-[1,2,4]triazolo[1,5-a]pyridine] | 7.82
26 | COCCn1cc(-c2cccs2)nc1CCc1cn2c(C)cc(C)nc2n1 [2-{2-[1-(2-Methoxy-ethyl)-4-thiophen-2-yl-1H-imidazol-2-yl]-ethyl}-5,7-dimethyl-imidazo[1,2-a]pyrimidine] | 6.89
27 | COc1cccn2nc(CCc3nc(-c4cncs4)cn3C)nc12 [8-Methoxy-2-[2-(1-methyl-4-thiazol-5-yl-1H-imidazol-2-yl)-ethyl]-[1,2,4]triazolo[1,5-a]pyridine] | 7.44
28 | Cc1cccc2nc(CCc3nc(-c4cccs4)cn3[C@@H](C)CO)nn12 [(S)-2-{2-[2-(5-Methyl-[1,2,4]triazolo[1,5-a]pyridin-2-yl)-ethyl]-4-thiophen-2-yl-imidazol-1-yl}-propan-1-ol] | 8.19
29 | Cc1cccc2nc(CCc3nc(-c4cccs4)cn3C[C@@H](O)CNC(C)C)nn12 [(S)-1-Isopropylamino-3-{2-[2-(5-methyl-[1,2,4]triazolo[1,5-a]pyridin-2-yl)-ethyl]-4-thiophen-2-yl-imidazol-1-yl}-propan-2-ol] | 7.34
30 | Cc1cc(C)n2cc(/C=C/c3nc(-c4ccco4)cn3C)nc2n1 [2-[(E)-2-(4-Furan-2-yl-1-methyl-1H-imidazol-2-yl)-vinyl]-5,7-dimethyl-imidazo[1,2-a]pyrimidine] | 7.60
31 | Cc1cccc2nc(CCc3nc(-c4cccs4)cn3C[C@@H](O)CN3CCOCC3)nn12 [(S)-1-{2-[2-(5-Methyl-[1,2,4]triazolo[1,5-a]pyridin-2-yl)-ethyl]-4-thiophen-2-yl-imidazol-1-yl}-3-morpholin-4-yl-propan-2-ol] | 7.85
32 | Cc1cccc2nc(CCc3nc(-c4cccs4)cn3C[C@@H](O)CN(C)CCC#N)nn12 [3-[((S)-2-Hydroxy-3-{2-[2-(5-methyl-[1,2,4]triazolo[1,5-a]pyridin-2-yl)-ethyl]-4-thiophen-2-yl-imidazol-1-yl}-propyl)-methyl-amino]-propionitrile] | 5.00
33 | Cc1ncc(C)n2nc(CCc3nc(-c4ccoc4)cn3C)nc12 [2-[2-(4-Furan-3-yl-1-methyl-1H-imidazol-2-yl)-ethyl]-5,8-dimethyl-[1,2,4]triazolo[1,5-a]pyrazine] | 8.54
34 | Cc1ccc(-c2cn(C)c(/C=C/c3nc4c(F)cccn4n3)n2)o1 [8-Fluoro-2-{(E)-2-[1-methyl-4-(5-methyl-furan-2-yl)-1H-imidazol-2-yl]-vinyl}-[1,2,4]triazolo[1,5-a]pyridine] | 6.28
